Laboratory results as given in patent US20230141101A1, “PDE4 INHIBITOR COMPOUND AND MEDICAL USE THEREOF” (Suzhou Longbotai Pharmaceuticals Co., Ltd., priority 2020, published 2023).

Assays:
Format in all cases: biochemical
Conditions in all cases: 20 nM
PDE4A1A = target: T1, PDE4A1A (Homo sapiens, UniProt P27815); test: PDE4 inhibitory activity assay (FAM-cAMP enzymatic reaction), PDE4A1A
T1 construct: purchased BPS 60040
Method in brief: (§1)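 Each isoform is incubated with test compound for 15 min at room temperature before FAM-cAMP substrate starts a 30-min reaction.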

PDE4B1 = target: T2, PDE4B1 (Homo sapiens, UniProt Q07343); test: PDE4 inhibitory activity assay (FAM-cAMP enzymatic reaction), PDE4B1
T2 construct: purchased BPS 60041
Method in brief: as §1

PDE4D2 = PDE4D2 (Homo sapiens, UniProt Q08499); test: PDE4 inhibitory activity assay (FAM-cAMP enzymatic reaction), PDE4D2
Method in brief: as §1

T1 sequence (P27815 1-647 isoform P27815-4): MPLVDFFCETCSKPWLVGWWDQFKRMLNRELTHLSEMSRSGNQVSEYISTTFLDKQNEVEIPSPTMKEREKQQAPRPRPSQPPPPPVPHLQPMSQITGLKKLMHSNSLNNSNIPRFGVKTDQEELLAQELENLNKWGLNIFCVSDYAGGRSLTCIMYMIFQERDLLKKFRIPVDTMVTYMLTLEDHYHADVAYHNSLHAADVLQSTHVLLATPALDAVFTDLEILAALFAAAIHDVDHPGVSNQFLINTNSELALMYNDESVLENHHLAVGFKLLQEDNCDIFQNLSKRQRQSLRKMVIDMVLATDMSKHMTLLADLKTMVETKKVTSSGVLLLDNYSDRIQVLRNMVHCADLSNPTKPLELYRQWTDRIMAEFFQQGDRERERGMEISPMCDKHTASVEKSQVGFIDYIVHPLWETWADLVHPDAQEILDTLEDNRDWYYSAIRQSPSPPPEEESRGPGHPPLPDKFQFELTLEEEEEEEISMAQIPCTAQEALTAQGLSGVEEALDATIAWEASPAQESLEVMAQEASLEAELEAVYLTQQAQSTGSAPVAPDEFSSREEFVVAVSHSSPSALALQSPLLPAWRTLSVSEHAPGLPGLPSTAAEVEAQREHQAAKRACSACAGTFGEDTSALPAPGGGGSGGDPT
Chain of PDE4D2 (Q08499 303-809): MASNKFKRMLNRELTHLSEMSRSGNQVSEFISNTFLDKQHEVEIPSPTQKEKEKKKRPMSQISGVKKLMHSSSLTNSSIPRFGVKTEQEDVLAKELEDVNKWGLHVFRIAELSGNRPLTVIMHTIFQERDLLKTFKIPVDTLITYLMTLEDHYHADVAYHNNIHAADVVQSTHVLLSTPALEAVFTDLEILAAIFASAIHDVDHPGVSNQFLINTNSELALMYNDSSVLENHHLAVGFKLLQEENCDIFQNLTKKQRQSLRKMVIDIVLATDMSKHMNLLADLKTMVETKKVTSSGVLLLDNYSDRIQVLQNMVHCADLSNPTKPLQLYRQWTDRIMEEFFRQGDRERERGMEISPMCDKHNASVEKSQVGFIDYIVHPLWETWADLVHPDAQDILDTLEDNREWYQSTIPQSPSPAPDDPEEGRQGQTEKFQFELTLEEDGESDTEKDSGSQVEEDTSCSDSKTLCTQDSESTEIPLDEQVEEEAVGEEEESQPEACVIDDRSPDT
T2 sequence (Q07343 whole entry): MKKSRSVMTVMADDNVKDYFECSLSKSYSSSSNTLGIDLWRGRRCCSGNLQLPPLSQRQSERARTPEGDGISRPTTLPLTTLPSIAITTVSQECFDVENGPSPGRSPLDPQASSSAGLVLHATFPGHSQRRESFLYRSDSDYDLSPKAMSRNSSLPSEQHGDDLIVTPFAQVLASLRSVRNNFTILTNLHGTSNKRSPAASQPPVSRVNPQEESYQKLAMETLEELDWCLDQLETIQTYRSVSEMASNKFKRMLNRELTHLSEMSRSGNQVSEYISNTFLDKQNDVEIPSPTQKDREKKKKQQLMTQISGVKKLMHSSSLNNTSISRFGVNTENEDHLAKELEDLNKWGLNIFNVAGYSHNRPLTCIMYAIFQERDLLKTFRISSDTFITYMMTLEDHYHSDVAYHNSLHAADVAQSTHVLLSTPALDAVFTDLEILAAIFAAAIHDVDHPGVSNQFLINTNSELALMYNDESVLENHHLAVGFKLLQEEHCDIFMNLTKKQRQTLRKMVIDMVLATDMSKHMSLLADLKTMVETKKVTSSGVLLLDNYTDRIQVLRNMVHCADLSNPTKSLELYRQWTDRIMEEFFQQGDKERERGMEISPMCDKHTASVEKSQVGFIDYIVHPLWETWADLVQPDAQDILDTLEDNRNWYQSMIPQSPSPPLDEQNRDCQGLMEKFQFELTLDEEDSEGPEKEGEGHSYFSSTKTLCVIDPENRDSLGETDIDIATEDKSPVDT

SMILES | PDE4 A1 inhibitory effect at 20 nM (PDE4A1A) | PDE4 B1 inhibitory effect at 20 nM (PDE4B1) | PDE4 D2 inhibitory effect at 20 nM (PDE4D2)
CCOc1nc([C@@H](CS(C)(=O)=O)n2c(=O)[nH]c3cc(-c4ccccn4)ccc32)ccc1OC [Ex. 194, (S)-1-(1-(6-ethoxy-5-methoxypyridin-2-yl)-2-(methylsulfonyl)ethyl)-5-(pyridin-2-yl)-1H-benzo[d]imidazol-2(3H)-one] | + | + | +
CCOc1nc([C@H](CS(C)(=O)=O)n2c(=O)[nH]c3cc(-c4ccccn4)ccc32)ccc1OC [Ex. 195, (R)-1-(1-(6-ethoxy-5-methoxypyridin-2-yl)-2-(methylsulfonyl)ethyl)-5-(pyridin-2-yl)-1H-benzo[d]imidazol-2(3H)-one] | − | − | −
CCOc1nc([C@@H](CS(C)(=O)=O)n2c(=O)n(C)c3cc(-c4ccccn4)ccc32)ccc1OC [Ex. 196, (S)-1-(1-(6-ethoxy-5-methoxypyridin-2-yl)-2-(methylsulfonyl)ethyl)-3-methyl-5-(pyridin-2-yl)-1H-benzo[d]imidazol-2(3H)-one] | + | + | +
CCOc1nc([C@@H](CS(C)(=O)=O)n2c(=O)n(CC)c3cc(-c4ccccn4)ccc32)ccc1OC [Ex. 197, (S)-1-(1-(6-ethoxy-5-methoxypyridin-2-yl)-2-(methylsulfonyl)ethyl)-3-ethyl-5-(pyridin-2-yl)-1H-benzo[d]imidazol-2(3H)-one] | + | + | +
CCOc1nc([C@@H](CS(C)(=O)=O)n2c(=O)n(CCOC)c3cc(-c4ccccn4)ccc32)ccc1OC [Ex. 198, (S)-1-(1-(6-ethoxy-5-methoxypyridin-2-yl)-2-(methylsulfonyl)ethyl)-3-(2-methoxyethyl)-5-(pyridin-2-yl)-1H-benzo[d]imidazol-2(3H)-one] | + | + | +
CCOc1nc([C@@H](CS(C)(=O)=O)n2c(=O)[nH]c3c(-c4ccccc4OC)cccc32)ccc1OC [Ex. 203, (S)-1-(1-(6-ethoxy-5-methoxypyridin-2-yl)-2-(methylsulfonyl)ethyl)-4-(2-methoxyphenyl)-1H-benzo[d]imidazol-2(3H)-one] | + | + | +
CCOc1nc([C@@H](CS(C)(=O)=O)n2c(=O)[nH]c3c(-c4ccccc4C)cccc32)ccc1OC [Ex. 204, (S)-1-(1-(6-ethoxy-5-methoxypyridin-2-yl)-2-(methylsulfonyl)ethyl)-4-(o-methylphenyl)-1H-benzo[d]imidazol-2(3H)-one] | + | + | +
CCOc1nc([C@@H](CS(C)(=O)=O)n2c(=O)[nH]c3c(-c4ccccc4F)cccc32)ccc1OC [Ex. 205, (S)-1-(1-(6-ethoxy-5-methoxypyridin-2-yl)-2-(methylsulfonyl)ethyl)-4-(2-fluorophenyl)-1H-benzo[d]imidazol-2(3H)-one] | + | + | +
CCOc1nc([C@@H](CS(C)(=O)=O)n2c(=O)[nH]c3c(-c4ccccc4)cccc32)ccc1OC [Ex. 206, (S)-1-(1-(6-ethoxy-5-methoxypyridin-2-yl)-2-(methylsulfonyl)ethyl)-4-phenyl-1H-benzo[d]imidazol-2(3H)-one] | + | + | +

The next lines start with the values.

PDE4 A1 inhibitory effect at 20 nM (PDE4A1A) | PDE4 B1 inhibitory effect at 20 nM (PDE4B1) | PDE4 D2 inhibitory effect at 20 nM (PDE4D2) | SMILES
+ | + | + | CCOc1nc([C@@H](CS(C)(=O)=O)n2c(=O)[nH]c3c(Cc4ccccc4F)cccc32)ccc1OC [Ex. 207, (S)-1-(1-(6-ethoxy-5-methoxypyridin-2-yl)-2-(methylsulfonyl)ethyl)-4-(2-fluorobenzyl)-1H-benzo[d]imidazol-2(3H)-one]
+ | + | + | CCOc1nc([C@@H](CS(C)(=O)=O)n2c(=O)n(C3CC3)c3cc(-c4ccccc4F)ccc32)ccc1OC [Ex. 208, (S)-3-cyclopropyl-1-(1-(6-ethoxy-5-methoxypyridin-2-yl)-2-(methylsulfonyl)ethyl)-5-(2-fluorophenyl)-1H-benzo[d]imidazol-2(3H)-one]
+ | + | + | CCOc1nc([C@@H](CS(C)(=O)=O)n2c(=O)n(C3CC3)c3cc(C)ccc32)ccc1OC [Ex. 209, (S)-3-cyclopropyl-1-(1-(6-ethoxy-5-methoxypyridin-2-yl)-2-(methylsulfonyl)ethyl)-5-methyl-1H-benzo[d]imidazol-2(3H)-one]
− | − | − | CCOc1nc([C@@H](CS(C)(=O)=O)n2c(=O)n(CCS(C)(=O)=O)c3cc(Br)ccc32)ccc1OC [Ex. 210, (S)-5-bromo-1-(1-(6-ethoxy-5-methoxypyridin-2-yl)-2-(methylsulfonyl)ethyl)-3-(2-(methylsulfonyl)ethyl)-1H-benzo[d]imidazol-2(3H)-one]
+ | + | + | CCOc1nc([C@@H](CS(C)(=O)=O)n2c(=O)n(C3CC3)c3cc(C(F)(F)F)ccc32)ccc1OC [Ex. 211, (S)-3-cyclopropyl-1-(1-(6-ethoxy-5-methoxypyridin-2-yl)-2-(methylsulfonyl)ethyl)-5-(trifluoromethyl)-1H-benzo[d]imidazol-2(3H)-one]
+ | + | + | CCOC(=O)c1ccc2c(c1)[nH]c(=O)n2[C@H](CS(C)(=O)=O)c1ccc(OC)c(OCC)n1 [Ex. 212, (S)-ethyl 1-(1-(6-ethoxy-5-methoxypyridin-2-yl)-2-(methylsulfonyl)ethyl)-2-oxo-2,3-dihydro-1H-benzo[d]imidazole-5-carboxylate]
+ | + | + | CCOc1nc([C@@H](CS(C)(=O)=O)n2c(=O)[nH]c3cc(C(=O)OC(C)C)ccc32)ccc1OC [Ex. 213, (S)-isopropyl 1-(1-(6-ethoxy-5-methoxypyridin-2-yl)-2-(methylsulfonyl)ethyl)-2-oxo-2,3-dihydro-1H-benzo[d]imidazole-5-carboxylate]
+ | + | + | CCOc1nc([C@@H](CS(C)(=O)=O)n2c(=O)[nH]c3cc(C(=O)OCC(F)(F)F)ccc32)ccc1OC [Ex. 214, (S)-2,2,2-trifluoroethyl 1-(1-(6-ethoxy-5-methoxypyridin-2-yl)-2-(methylsulfonyl)ethyl)-2-oxo-2,3-dihydro-1H-benzo[d]imidazole-5-carboxylate]
+ | + | + | CCOc1nc([C@@H](CS(C)(=O)=O)N2Cc3cccc(NC(C)=O)c3C2=O)ccc1OC [Ex. 215, (S)—N-(2-(1-(6-ethoxy-5-methoxypyridin-2-yl)-2-(methylsulfonyl)ethyl)-3-oxoisoindolin-4-yl)acetamide]
+ | + | + | CCOc1nc([C@H](CS(C)(=O)=O)N2Cc3cccc(NC(C)=O)c3C2=O)ccc1OC [Ex. 216, (R)—N-(2-(1-(6-ethoxy-5-methoxypyridin-2-yl)-2-(methylsulfonyl)ethyl)-3-oxoisoindolin-4-yl)acetamide]
+ | + | + | CCOc1nc([C@@H](CS(C)(=O)=O)N2Cc3cccc(NC(=O)C4CC4)c3C2=O)ccc1OC [Ex. 217, (S)—N-(2-(1-(6-ethoxy-5-methoxypyridin-2-yl)-2-(methylsulfonyl)ethyl)-3-oxoisoindolin-4-yl)cyclopropanecarboxamide]
+ | + | + | CCOc1nc([C@H](CS(C)(=O)=O)N2Cc3cccc(NC(=O)C4CC4)c3C2=O)ccc1OC [Ex. 218, (R)—N-(2-(1-(6-ethoxy-5-methoxypyridin-2-yl)-2-(methylsulfonyl)ethyl)-3-oxoisoindolin-4-yl)cyclopropanecarboxamide]
+ | + | + | CCOc1nc([C@@H](CS(C)(=O)=O)N2Cc3cccc(NC(=O)CC)c3C2=O)ccc1OC [Ex. 219, (S)—N-(2-(1-(6-ethoxy-5-methoxypyridin-2-yl)-2-(methylsulfonyl)ethyl)-3-oxoisoindolin-4-yl)propionamide]
